US10647688B2, “Compounds, synthesis method thereof and use of same in medicine and in cosmetics” (GALDERMA RESEARCH & DEVELOPMENT, priority 2014, dated 2020)

Experiments:
Type in all cases: cell-based
[1] = biological target: T1, RARα (Homo sapiens, UniProt P10276); experiment: Transactivation reporter test (luciferase) in HeLa ERE Luc-hRAR cells, RARα; details: for EC50: HeLa ERE Luc-hRAR cells, dose-response 10000 nM-0.04 nM, 18 hours incubation; for RARα Comments: agonist type (total/partial); for RARα Efficacy: normalized to basal control and maximum efficacy control CD0193 100 nM
T1 construct: expressed in transfected cells; line from Prof; Ballaguer, INSERM 439, Montpellier
T1 sequence (P10276 183-417 limits assumed): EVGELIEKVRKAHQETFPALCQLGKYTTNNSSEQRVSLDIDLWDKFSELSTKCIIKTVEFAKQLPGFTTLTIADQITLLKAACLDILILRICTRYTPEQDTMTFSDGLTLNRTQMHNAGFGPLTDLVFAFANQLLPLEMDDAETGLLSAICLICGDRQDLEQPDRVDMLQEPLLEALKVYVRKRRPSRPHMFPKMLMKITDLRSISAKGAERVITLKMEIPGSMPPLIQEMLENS
Protocol: (§1) The activity of our molecules on the RAR is measured using a recombinant line expressing the ligand-biding domain (LBD) of RAR fused with the DNA binding domain (DBD) of the estrogen receptors. The specific transactivation of the receptor on the receptor estrogen response element (ERE) leads to transcription of luciferase. The expression of this reporter gene is quantified by luminescence after addition of its substrate, luciferin.
(§2) This line was produced by Prof. Ballaguer (INSERM 439, Montpellier) after stable transfection of HeLa by ERE-βGlob-Luc-SV-Neo and RAR(α, β, γ)-ER-DBD-puro plasmids.
(§3) The compounds are evaluated by dose-response (10000 nM-0.04 nM) normalized relative to a basal control and a maximum efficacy control (CD0193, reference agonist with 100 nM saturating concentration): Y=((X−0%)/(100%−0%))*100.
(§4) The affinity (EC50 in nM) and efficacy (in %) are measured using the XLfit (IDBS) software according to a four-parameter nonlinear regression (model 205).
(§5) HeLa ERE Luc-hRAR cells are inoculated on 96 well microplates (10,000 cell/100 μL). After 4 hours of incubation at 37° C./5% CO2, they are treated with 5 μL of 20× products (0.1 final DMSO).

[2] = biological target: T2, RARβ (Homo sapiens, UniProt P10826); experiment: Transactivation reporter test (luciferase) in HeLa ERE Luc-hRAR cells, RARβ; details: for EC50: HeLa ERE Luc-hRAR cells, dose-response 10000 nM-0.04 nM, 18 hours incubation; for RARβ Comments: agonist type (total/partial); for RARβ Efficacy (%): normalized to basal control and maximum efficacy control CD0193 100 nM
T2 construct: expressed in transfected cells; line from Prof; Ballaguer, INSERM 439, Montpellier
T2 sequence (P10826 183-417 limits assumed): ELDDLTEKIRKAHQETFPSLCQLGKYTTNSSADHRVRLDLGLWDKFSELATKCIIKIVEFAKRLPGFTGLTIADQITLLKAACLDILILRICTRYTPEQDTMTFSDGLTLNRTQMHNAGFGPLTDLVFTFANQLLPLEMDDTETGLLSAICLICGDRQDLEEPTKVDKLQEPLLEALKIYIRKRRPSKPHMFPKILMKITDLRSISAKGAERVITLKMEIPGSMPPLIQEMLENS
Protocol: as §1, §2, §3, §4, §5

[3] = biological target: T3, RARγ (Homo sapiens, UniProt P13631); experiment: Transactivation reporter test (luciferase) in HeLa ERE Luc-hRAR cells, RARγ; details: for EC50: HeLa ERE Luc-hRAR cells, dose-response 10000 nM-0.04 nM, 18 hours incubation; for RARγ Comments: agonist type (total/partial); for RARγ Efficacy (%): normalized to basal control and maximum efficacy control CD0193 100 nM
T3 construct: expressed in transfected cells; line from Prof; Ballaguer, INSERM 439, Montpellier
T3 sequence (P13631 185-419 limits assumed): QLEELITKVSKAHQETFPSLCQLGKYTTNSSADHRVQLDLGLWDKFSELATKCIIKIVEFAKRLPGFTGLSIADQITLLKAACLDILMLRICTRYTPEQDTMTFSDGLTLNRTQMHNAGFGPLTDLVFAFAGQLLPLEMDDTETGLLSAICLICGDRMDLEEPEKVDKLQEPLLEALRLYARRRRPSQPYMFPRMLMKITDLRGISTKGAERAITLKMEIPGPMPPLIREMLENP
Protocol: as §1, §2, §3, §4, §5

| SMILES | EC50 [1] [nM] | RARα Comments [1] | RARα Efficacy [1] [%] | EC50 [2] [nM] | RARβ Comments [2] | RARβ Efficacy (%) [2] [%] | EC50 [3] [nM] | RARγ Comments [3] | RARγ Efficacy (%) [3] [%] |
| --- | --- | --- | --- | --- | --- | --- | --- | --- | --- |
| CCOCOc1ccc(-c2noc(-c3ccc(C(=O)O)cc3)n2)cc1C(C)(C)C [4-[3-(3-tert-butyl-4-ethoxymethoxy-phenyl)-[1,2,4]oxadiazol-5-yl]-benzoic acid] | 650 | Total | 104 | 6.2 | Total agonist | 95 | 10 | Total | 88 |
| CCOCOc1ccc(-c2noc(-c3ccc(C(=O)O)cc3)n2)cc1C1(C)CCCCC1 [4-{3-[4-ethoxymethoxy-3-(1-methyl-cyclohexyl)-phenyl]-[1,2,4]oxadiazol-5-yl}-benzoic acid] | 90 | Total | 80 | 0.56 | Total agonist | 107 | 0.9 | Total | 102 |
| COc1ccc(-c2cnc(-c3ccc(C(=O)O)cc3)s2)cc1C(C)(C)C [4-[5-(3-tert-butyl-4-methoxy-phenyl)-thiazol-2-yl]-benzoic acid] | 109 | partial agonist | 53 | 164 | partial agonist | 46 | 66 | partial agonist | 40 |
| CC1(C)CCC(C)(C)c2cc(-c3cnc(-c4ccc(C(=O)O)cc4)s3)ccc21 [4-[5-(5,5,8,8-tetramethyl-5,6,7,8-tetrahydro-naphthalen-2-yl)-thiazol-2-yl]-benzoic acid] | 9790 | Total | 64 | 52 | Total agonist | 110 | 162 | Total | 78 |
| CC(C)(C)c1cc(-c2noc(-c3ccc(C(=O)O)cc3)n2)ccc1O [4-[3-(3-tert-butyl-4-hydroxy-phenyl)-[1,2,4]oxadiazol-5-yl]-benzoic acid] | 107 | Total | 106 | 3 | Total agonist | 110 | 2.4 | Total | 110 |
| CCOc1ccc(-c2noc(-c3ccc(C(=O)O)cc3)n2)cc1C(C)(C)C [4-[3-(3-tert-butyl-4-ethoxy-phenyl)-[1,2,4]oxadiazol-5-yl]-benzoic acid] | 255 | Total | 105 | 3.8 | Total agonist | 92 | 9.3 | Total | 96 |
| CCCOc1ccc(-c2cnc(-c3ccc(C(=O)O)cc3)s2)cc1C1(C)CCCCC1 [4-{5-[3-(1-methyl-cyclohexyl)-4-propoxy-phenyl]-thiazol-2-yl}-benzoic acid] | 3170 | Total | 68 | 635 | Total agonist | 90 | 1030 | Total | 74 |
